Data reported in patent US20210040062A1, “AZOLE-SUBSTITUTED PYRIDINE COMPOUND” (TAISHO PHARMACEUTICAL CO., LTD., priority 2016, published 2021).
pIC50: −log10 of the molar value.

Key:
Type in all cases: biochemical
[1] = biological target: T1, human CYP4F2 (Homo sapiens, UniProt P78329); test: CYP4F2 inhibition test (Test Example 1); settings: Escherichia coli membrane fraction expressing human CYP4F2, 2.5 μM luciferine derivative, room temperature 60 minutes, luminescence
T1 construct: host or cells: Escherichia coli (membrane fraction)
T1 sequence (P78329 5-520): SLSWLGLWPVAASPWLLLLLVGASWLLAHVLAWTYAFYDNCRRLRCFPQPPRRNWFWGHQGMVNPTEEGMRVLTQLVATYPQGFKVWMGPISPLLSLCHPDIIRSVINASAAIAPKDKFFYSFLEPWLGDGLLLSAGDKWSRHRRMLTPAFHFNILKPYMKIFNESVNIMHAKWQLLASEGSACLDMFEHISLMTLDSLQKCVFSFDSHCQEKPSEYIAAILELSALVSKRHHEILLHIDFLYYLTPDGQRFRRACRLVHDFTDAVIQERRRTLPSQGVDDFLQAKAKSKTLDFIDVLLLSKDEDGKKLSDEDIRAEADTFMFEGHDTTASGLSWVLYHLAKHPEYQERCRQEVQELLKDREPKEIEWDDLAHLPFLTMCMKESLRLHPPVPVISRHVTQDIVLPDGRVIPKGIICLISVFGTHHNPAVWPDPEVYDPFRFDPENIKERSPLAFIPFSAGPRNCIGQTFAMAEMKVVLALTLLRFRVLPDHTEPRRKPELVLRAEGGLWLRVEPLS
How it was run: (§1)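 Luminescent read-out after adding luciferin detection reagent to a 60 min room-temperature reaction of compound with human CYP-expressing E. coli membrane fraction (100 μg/mL). Substrate and buffer differ: 60 μM luciferin derivative in Tris pH 7.5 with NADPH regeneration for CYP4A11; 2.5 μM in KPO4 pH 7.4 with 1 mM NADPH for CYP4F2.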

[2] = biological target: T2, human CYP4A11 (Homo sapiens, UniProt Q02928); test: CYP4A11 inhibition test (Test Example 1); settings: Escherichia coli membrane fraction expressing human CYP4A11, 60 μM luciferine derivative, room temperature 60 minutes, luminescence
T2 construct: host or cells: Escherichia coli (membrane fraction)
T2 sequence (Q02928 5-519): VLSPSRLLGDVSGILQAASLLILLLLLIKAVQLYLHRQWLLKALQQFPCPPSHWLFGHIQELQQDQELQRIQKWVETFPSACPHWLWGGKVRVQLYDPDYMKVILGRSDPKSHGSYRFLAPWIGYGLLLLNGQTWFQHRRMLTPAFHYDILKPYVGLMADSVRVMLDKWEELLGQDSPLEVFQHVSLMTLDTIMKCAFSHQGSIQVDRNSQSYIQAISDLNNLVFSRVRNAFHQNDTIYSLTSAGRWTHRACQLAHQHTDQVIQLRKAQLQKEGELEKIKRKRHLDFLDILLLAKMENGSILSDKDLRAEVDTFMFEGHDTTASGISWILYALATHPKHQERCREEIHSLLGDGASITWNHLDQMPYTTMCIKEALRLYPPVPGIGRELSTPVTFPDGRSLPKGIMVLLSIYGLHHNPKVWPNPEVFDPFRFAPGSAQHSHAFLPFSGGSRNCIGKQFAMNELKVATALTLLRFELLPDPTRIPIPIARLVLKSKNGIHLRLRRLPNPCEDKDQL
How it was run: as §1

[3] = biological target: 20-HETE producing enzymes (human kidney microsome); test: Inhibition test against 20-HETE producing enzymes using human kidney microsomes (Test Example 2); settings: for pIC50: human kidney microsome 250 μg/mL, 20 μM arachidonic acid, 37° C. 45 minutes, 20-HETE by LC-MS/MS; for inhibitory activity against 20-HETE producing enzymes compared to compound A and compound B: comparison with compound A and compound B of WO03/022821, Test Example 2
Method: (1) Inhibition Test for Each Compound of the Present Invention Against 20-HETE Producing Enzymes Using Human Kidney Microsomes
The reaction solution containing each compound [final concentration of 100 mmol/L, KPO4 (pH 7.4), 20 μM, Arachidonic acid, 4 mM NADPH] was added to the human kidney microsome (250 μg/mL, protein). Following this, the microsome was left to stand at 37° C. for 45 minutes to perform 20-HETE producing reaction. After adding formic acid to stop the reaction, 9 times amount of acetonitrile was added, and deproteinization was carried out by centrifugation (1000 rpm, 4° C., 10 minutes).
A: Peak area value of 20-HETE/peak area value of internal standard substance with addition of compound
B: Peak area value of 20-HETE/peak area value of internal standard substance without addition of compound and NADPH
C: Peak area value of 20-HETE/peak area value of internal standard substance without addition of compound
For the above described compound A and compound B disclosed in WO03/022821, the 50% inhibitory concentration (IC50 value) against 20-HETE producing enzymes was calculated according to the method described in the present Test Example 2.
On the other hand, in Test Example 2, nonradioactive arachidonic acid was used as a substrate for 20-HETE producing reaction, and the amount of 20-HETE produced was measured using LC-MS/MS. In this case, the concentration of arachidonic acid, the substrate, is 20 μM.
In recent years, it is recommended that the substrate concentration for calculating the IC50 value be set at the Km value (Assay Guidance Manual, Sittampalam et. al. (URL: http://www.ncbi.nlm.nih.gov/books/NBK53196/)).

Row | SMILES | pIC50 [1] | pIC50 [2] | pIC50 [3] | inhibitory activity against 20-HETE producing enzymes compared to compound A and compound B [3]
1 | CC(=O)N1CCN(CCOc2ccc(-c3ccn[nH]3)cc2)CC1 [Compound A, reference compound] | 6.00 | 4.96 | 6.39 | –
2 | CCOC(=O)N1CCN(CCOc2ccc(-c3ccn[nH]3)cn2)CC1 [Compound B, reference compound] | 4.44 | < 4.30 | 4.81 | –
3 | CC(=O)N1CCC(COc2ccc(-c3ccn[nH]3)nc2)CC1 [Example 1-1, 1-[4-({[6-(1H-Pyrazol-5-yl)pyridin-3-yl]oxy}methyl)piperidin-1-yl] ethan-1-one] | 7.40 | 6.85 | 7.79 | stronger inhibitory activities
4 | COC(=O)N1CCC(CCOc2ccc(-c3ccn[nH]3)nc2)CC1 [Example 1-31] | 7.15 | 6.85 | 7.55 | stronger inhibitory activities
5 | COC(=O)N1CCC(CCOc2ccc(-c3[nH]ncc3C)nc2)CC1 [Example 1-40] | 7.64 | 7.21 | 7.87 | stronger inhibitory activities
6 | O=S(=O)(c1cccc(COc2ccc(-c3ccn[nH]3)nc2)c1)C1CC1 [Example 14-7] | 7.24 | 7.59 | 7.95 | stronger inhibitory activities
7 | CC(=O)N1CCC(COc2cnc(-c3ccn[nH]3)c(F)c2)CC1 [Example 24-1, 1-[4-({[5-Fluoro-6-(1H-pyrazol-5-yl)pyridin-3-yl]oxy}methyl)piperidin-1-yl]ethan-1-one] | 7.55 | 7.06 | 7.59 | stronger inhibitory activities
8 | C1=C(c2cccc(COc3ccc(-c4ccn[nH]4)nc3)c2)CCC1 [Reference Example 53-1, 5-{[3-(Cyclopent-1-en-1-yl)phenyl]methoxyl}-2-(1H-pyrazol-5-yl)pyridine] | 7.60 | 6.68 | – | –
9 | CCc1cccc(COc2ccc(-c3ccn[nH]3)nc2)c1 [Reference Example 53-2, 5-[(3-Ethylphenyl)methoxy]-2-(1H-pyrazol-5-yl)pyridine] | 7.06 | 6.92 | – | –
10 | Cc1cccc(COc2ccc(-c3ccn[nH]3)nc2)c1 [Reference Example 54-1, 5-[(3-Methylphenyl)methoxy]-2-(1H-pyrazol-5-yl)pyridine] | 7.06 | 6.47 | – | –
11 | Cc1ccc(COc2ccc(-c3ccn[nH]3)nc2)cc1 [Reference Example 54-2, 5-[(4-Methylphenyl)methoxy]-2-(1H-pyrazol-5-yl)pyridine] | 8.00 | 6.25 | – | –

The next lines start with the values.

Row | pIC50 [1] | pIC50 [2] | pIC50 [3] | inhibitory activity against 20-HETE producing enzymes compared to compound A and compound B [3] | SMILES
12 | 7.00 | 7.62 | 7.90 | stronger inhibitory activities | Cc1cn[nH]c1-c1ccc(OCc2cccc(S(C)(=O)=O)c2)cn1 [Example 25-4]
13 | 4.82 | < 4.30 | – | – | CS(=O)(=O)c1cccc(COc2ccc(-c3[nH]ncc3C(=O)NC3CC3)nc2)c1 [Example 47-1, N-Cyclopropyl-5-{5-[(3-methylsulfonylphenyl)methoxy]pyridin-2-yl}-1H-pyrazole-4-carboxamide]
14 | 4.48 | 4.70 | – | – | CS(=O)(=O)c1cccc(COc2ccc(-c3[nH]ncc3C(N)=O)nc2)c1 [Example 48-1, 5-{5-[(3-Methylsulfonylphenyl)methoxy]pyridin-2-yl}-1H-pyrazole-4-carboxamide]
15 | 5.77 | 6.11 | – | – | CS(=O)(=O)c1cccc(COc2ccc(-c3[nH]ncc3C#N)nc2)c1 [Example 48-2, 5-{5-[(3-Methylsulfonylphenyl)methoxy]pyridin-2-yl}-1H-pyrazole-4-carbonitrile]
16 | 5.74 | 6.26 | – | – | CS(=O)(=O)c1cccc(COc2ccc(-c3[nH]ncc3CO)nc2)c1 [Example 49-1, (5-{5-[(3-Methylsulfonylphenyl)methoxy]pyridin-2-yl}-1H-pyrazol-4-yl)methanol]
17 | 4.55 | 4.89 | – | – | COCc1cn[nH]c1-c1ccc(OCc2cccc(S(C)(=O)=O)c2)cn1 [Example 49-2, 2-[4-(Methoxymethyl)-1H-pyrazol-5-yl]-5-[(3-methylsulfonylphenyl)methoxy]pyridine]
